# According to PMC4977286 (Frontiers in Pharmacology, 2016):
# Read-outs that look alike come from different tables or passages of the source.
# Experiments:
# [1] = cited from earlier work
# in vivo [2] = conditions: mouse, po, 12 mg/kg
# MRP2 [3] = molecular target: T1, MRP2 (Homo sapiens, UniProt Q92887); format: biochemical; parameters: purchased BD Gentest Co. (Woburn, MA)
# [4] = tested on: sandwich-cultured rat hepatocytes (SCRH)
# MRP2 [5] = molecular target: T1, MRP2
# BCRP = molecular target: T2, BCRP (Homo sapiens, UniProt Q9UNQ0)
# T2 sequence (Q9UNQ0 1-655): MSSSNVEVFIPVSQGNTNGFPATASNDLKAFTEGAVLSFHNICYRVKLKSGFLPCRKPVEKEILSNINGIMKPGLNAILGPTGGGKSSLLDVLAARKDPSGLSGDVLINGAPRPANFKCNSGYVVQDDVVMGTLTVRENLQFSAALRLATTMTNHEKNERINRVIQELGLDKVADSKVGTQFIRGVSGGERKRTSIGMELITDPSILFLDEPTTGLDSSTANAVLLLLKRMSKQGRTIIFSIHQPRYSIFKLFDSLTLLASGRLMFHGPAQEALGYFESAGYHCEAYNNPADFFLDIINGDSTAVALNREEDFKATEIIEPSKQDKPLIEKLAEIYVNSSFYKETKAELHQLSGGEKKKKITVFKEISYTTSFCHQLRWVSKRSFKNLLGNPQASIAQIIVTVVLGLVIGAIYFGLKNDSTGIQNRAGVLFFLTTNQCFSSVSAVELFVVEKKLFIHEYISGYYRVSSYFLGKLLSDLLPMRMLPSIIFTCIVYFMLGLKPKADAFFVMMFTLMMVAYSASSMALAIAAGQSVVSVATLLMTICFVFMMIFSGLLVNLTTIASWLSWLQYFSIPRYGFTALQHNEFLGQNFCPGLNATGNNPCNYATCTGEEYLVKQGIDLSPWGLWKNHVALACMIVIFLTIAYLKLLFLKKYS
# MDR1 = MDR1 (Homo sapiens, UniProt P08183)
# MRP2 [6] = molecular target: MRP2 (Rattus norvegicus, UniProt Q63120); experiment: Bile clearance of TNP-G in SCRH with MRP2 inhibitors or inducer; conditions: for BEI of TNP-G, % of the control cells: TNP-G 20 μM; for BEI of TNP-G, % of the control cells / CLbile, int of TNP-G decreased by: inhibitor 100 μM
# Chain of MRP2 (Rattus norvegicus, UniProt Q63120) (Q63120 whole entry): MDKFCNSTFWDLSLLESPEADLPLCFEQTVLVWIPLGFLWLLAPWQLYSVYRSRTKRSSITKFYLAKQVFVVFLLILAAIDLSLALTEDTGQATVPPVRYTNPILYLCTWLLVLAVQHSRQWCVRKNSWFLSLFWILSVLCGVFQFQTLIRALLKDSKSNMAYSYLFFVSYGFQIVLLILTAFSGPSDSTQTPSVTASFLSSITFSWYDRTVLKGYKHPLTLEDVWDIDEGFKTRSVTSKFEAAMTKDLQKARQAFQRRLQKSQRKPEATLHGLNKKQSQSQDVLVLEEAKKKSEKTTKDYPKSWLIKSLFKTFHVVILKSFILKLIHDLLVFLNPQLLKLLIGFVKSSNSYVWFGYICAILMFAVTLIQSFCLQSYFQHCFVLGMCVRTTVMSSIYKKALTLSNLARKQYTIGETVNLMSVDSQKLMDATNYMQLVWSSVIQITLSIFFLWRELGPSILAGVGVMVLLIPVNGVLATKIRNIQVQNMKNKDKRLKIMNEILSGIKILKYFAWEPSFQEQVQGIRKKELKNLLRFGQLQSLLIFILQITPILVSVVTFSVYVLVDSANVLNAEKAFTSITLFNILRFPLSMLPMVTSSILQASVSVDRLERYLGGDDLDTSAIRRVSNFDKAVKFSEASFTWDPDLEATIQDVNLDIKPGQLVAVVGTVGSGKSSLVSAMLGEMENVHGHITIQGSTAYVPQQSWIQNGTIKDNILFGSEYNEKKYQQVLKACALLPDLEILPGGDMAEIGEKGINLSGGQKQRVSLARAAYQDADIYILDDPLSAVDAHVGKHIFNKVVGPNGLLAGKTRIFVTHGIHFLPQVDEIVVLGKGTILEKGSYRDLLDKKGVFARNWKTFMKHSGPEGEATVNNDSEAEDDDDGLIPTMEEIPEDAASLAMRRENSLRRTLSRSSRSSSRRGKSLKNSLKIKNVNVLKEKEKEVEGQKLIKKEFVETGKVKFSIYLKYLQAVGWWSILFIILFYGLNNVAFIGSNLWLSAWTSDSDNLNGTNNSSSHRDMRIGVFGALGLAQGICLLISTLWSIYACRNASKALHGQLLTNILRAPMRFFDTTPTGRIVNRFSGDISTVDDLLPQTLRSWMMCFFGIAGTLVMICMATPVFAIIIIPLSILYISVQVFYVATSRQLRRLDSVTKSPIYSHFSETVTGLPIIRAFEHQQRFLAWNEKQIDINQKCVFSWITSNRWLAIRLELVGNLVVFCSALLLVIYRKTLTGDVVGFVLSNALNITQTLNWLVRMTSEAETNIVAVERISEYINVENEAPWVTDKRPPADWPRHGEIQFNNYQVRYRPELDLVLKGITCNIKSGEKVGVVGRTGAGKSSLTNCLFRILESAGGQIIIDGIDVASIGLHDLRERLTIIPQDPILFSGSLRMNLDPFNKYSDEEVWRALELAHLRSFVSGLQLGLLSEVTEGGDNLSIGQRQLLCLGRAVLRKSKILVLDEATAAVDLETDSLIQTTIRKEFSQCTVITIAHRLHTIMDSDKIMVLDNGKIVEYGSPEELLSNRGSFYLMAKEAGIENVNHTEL
# P-gp [7] = molecular target: P-gp (Homo sapiens, UniProt P08183)
# Chain of P-gp (Homo sapiens, UniProt P08183) (P08183 whole entry): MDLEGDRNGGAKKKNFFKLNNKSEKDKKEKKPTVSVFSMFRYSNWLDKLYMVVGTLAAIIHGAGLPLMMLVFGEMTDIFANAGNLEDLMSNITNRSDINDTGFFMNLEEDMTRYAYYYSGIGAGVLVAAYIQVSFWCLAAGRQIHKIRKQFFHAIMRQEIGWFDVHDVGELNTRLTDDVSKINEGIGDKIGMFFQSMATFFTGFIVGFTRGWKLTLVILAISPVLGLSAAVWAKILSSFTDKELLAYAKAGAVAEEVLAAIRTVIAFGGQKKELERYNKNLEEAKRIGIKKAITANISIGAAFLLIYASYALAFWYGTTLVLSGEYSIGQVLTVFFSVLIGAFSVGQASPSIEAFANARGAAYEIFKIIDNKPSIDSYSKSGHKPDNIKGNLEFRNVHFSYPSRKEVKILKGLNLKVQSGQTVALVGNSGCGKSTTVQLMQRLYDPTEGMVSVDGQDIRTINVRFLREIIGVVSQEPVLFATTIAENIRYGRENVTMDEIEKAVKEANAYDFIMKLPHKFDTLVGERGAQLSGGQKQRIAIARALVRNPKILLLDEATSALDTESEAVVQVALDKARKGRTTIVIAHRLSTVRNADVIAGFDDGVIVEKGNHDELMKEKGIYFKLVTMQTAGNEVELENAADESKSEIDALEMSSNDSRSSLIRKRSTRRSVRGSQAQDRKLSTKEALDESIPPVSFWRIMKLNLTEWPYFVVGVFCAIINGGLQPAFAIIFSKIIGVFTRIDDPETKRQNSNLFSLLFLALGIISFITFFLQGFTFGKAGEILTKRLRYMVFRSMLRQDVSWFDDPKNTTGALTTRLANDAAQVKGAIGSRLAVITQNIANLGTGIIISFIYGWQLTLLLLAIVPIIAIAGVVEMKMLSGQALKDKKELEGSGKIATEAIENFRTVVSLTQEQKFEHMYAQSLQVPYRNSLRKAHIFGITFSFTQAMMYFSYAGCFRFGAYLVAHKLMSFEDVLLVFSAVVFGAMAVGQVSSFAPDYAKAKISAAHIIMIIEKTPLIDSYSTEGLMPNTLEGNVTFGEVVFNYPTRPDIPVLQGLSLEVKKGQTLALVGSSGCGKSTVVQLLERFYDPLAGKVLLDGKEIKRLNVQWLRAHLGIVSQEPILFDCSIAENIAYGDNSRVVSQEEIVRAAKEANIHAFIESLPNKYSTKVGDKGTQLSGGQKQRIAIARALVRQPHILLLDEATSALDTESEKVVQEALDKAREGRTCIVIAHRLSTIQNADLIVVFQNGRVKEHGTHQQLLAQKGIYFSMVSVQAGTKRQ
# [8] = mouse, in vivo
# [9] = rat, in vivo
# in vivo [10] = conditions: rat
# rat liver microsomes = conditions: for TNP-G formation, Liver microsome: rat
# P-gp [11] = tested on: P-gp
# UGT1A1 = molecular target: T3, UGT1A1 (Homo sapiens, UniProt P22309)
# T3 sequence (P22309 26-533): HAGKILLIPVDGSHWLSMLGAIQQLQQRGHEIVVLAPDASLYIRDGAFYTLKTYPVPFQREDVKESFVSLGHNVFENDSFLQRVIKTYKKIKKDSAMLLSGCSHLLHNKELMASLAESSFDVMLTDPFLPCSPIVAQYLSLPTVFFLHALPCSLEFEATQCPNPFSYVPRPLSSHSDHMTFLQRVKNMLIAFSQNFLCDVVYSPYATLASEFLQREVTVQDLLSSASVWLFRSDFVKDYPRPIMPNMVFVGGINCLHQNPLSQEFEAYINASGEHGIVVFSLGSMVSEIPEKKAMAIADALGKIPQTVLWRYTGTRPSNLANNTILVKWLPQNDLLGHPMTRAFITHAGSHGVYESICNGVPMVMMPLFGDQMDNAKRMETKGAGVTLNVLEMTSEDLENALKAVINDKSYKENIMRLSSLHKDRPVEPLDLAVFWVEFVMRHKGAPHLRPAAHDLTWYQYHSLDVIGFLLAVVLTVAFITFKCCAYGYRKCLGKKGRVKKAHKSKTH
# T1 sequence (Q92887 whole entry): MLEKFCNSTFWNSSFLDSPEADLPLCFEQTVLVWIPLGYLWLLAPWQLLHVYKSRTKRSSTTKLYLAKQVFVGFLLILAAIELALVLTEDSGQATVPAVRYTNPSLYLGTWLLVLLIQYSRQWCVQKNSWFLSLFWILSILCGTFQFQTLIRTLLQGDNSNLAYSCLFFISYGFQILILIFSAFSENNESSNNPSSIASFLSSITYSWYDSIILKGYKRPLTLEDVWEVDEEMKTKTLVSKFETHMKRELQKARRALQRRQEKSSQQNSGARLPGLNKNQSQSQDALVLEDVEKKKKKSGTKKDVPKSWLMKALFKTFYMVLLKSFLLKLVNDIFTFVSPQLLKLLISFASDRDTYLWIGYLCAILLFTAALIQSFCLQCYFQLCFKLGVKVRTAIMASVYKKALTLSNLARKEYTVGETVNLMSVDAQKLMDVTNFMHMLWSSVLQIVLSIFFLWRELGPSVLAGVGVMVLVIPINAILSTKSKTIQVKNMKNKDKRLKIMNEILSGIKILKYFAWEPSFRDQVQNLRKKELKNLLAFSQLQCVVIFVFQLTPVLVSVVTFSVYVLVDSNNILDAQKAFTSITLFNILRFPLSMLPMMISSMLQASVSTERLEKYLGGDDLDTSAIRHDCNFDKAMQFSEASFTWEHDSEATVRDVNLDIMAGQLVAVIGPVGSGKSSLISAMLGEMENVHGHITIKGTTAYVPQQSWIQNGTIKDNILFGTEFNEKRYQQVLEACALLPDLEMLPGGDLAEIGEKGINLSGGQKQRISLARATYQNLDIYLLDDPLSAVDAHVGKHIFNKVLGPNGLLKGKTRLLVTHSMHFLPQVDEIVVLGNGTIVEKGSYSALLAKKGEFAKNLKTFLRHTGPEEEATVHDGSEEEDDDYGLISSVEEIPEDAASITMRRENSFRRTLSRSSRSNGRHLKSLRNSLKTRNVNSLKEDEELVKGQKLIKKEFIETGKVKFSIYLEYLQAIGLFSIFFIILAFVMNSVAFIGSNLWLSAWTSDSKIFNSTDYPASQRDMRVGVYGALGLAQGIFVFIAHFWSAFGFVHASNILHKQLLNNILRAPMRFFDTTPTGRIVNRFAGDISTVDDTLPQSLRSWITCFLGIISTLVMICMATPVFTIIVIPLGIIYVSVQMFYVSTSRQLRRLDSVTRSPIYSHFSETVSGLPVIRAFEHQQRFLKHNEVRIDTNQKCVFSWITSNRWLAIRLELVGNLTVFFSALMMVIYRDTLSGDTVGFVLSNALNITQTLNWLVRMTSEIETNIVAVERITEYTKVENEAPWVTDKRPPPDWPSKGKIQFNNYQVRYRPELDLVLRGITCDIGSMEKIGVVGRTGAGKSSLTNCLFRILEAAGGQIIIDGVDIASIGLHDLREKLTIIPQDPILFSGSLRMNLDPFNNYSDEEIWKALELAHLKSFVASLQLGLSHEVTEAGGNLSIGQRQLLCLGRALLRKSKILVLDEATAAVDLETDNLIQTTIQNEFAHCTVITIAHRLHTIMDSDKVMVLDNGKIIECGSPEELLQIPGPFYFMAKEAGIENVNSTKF
structure (smiles),measurement,setting,value
"COC12CCC3(CC1C(C)(O)CCc1cccs1)C1Cc4ccc(OC5OC(C(=O)O)C(O)C(O)C5O)c5c4C3(CCN1CC1CC1)C2O5 (stereo not shown) [TNP-G, thienorphine-3-glucuronide]","fu,p (plasma unbound fraction)",[1],0.02
same,AUC(0-t),in vivo [2]; AUC(0-t),108 ± 19.6 ng·h/mL
same,MRT,in vivo [2]; MRT,5.7 ± 2 h
same,half-life,in vivo [2]; t1/2,4.3 ± 1.7 h
same,"Transporter substrate finding, MRP2",MRP2 [3],MRP2 substrate
same,"Vanadate-sensitive ATPase activities, MRP2",MRP2 [3],4.1 ± 0.6 nmol/min/mg
same,"CLbile, int From Eq. 2",[4],11.2 ± 2.7 mL/min/kg
same,"CLbile,pred (plasma total concentration) relative to measured CLbile,obs",[4],~1.3 fold
same,"CLbile,pred From Eq. 3",[4],8.7 ± 1.7 mL/min/kg
same,"CLbile,pred From Eq. 4",[4],0.2 ± 0.01 mL/min/kg
same,average BEI (biliary excretion index),[4],41.4 ± 2.6
same,"intracellular concentration, increase compared with the NC-siRNA group",MRP2 [5],2.1 fold
same,"Vanadate-sensitive ATPase activities, BCRP",BCRP,5.8 ± 0.8 nmol/min/mg
same,"Vanadate-sensitive ATPase activities, MDR1",MDR1,4.2 ± 0.8 nmol/min/mg
same,"CLbile,int of TNP-G",MRP2 [6]; dexamethasone 0 μM (control),4.2 ± 0.1 mL/min/kg
same,"CLbile,int of TNP-G",MRP2 [6]; methotrexate 0 μM (control),3.1 ± 0.4 mL/min/kg
same,"CLbile,int of TNP-G",MRP2 [6]; probenecid 0 μM (control),1.6 ± 0.03 mL/min/kg
same,"intracellular concentration, increase compared with the NC-siRNA group",P-gp [7],not impacted
same,increase in AUC0-t compared to the NC-siRNA group,[8],1.9 fold
same,increase in Cmax compared to the NC-siRNA group,[8],2.7 fold
same,AUC(0-t),"[8]; po, 12 mg/kg",202.7 ± 70.7 ng·h/mL
same,MRT,"[8]; po, 12 mg/kg",6.7 ± 1.7 h
same,t1/2,"[8]; po, 12 mg/kg",6.1 ± 1.1 h
same,"CLbile,obs From Eq.5",[9],6.9 ± 0.5 mL/min/kg
same,dose excreted,in vivo [10],≤ 28%
"CN(Cc1cnc2nc(N)nc(N)c2n1)c1ccc(C(=O)N[C@@H](CCC(=O)O)C(=O)O)cc1 [Methotrexate, methotrexate]","BEI of TNP-G, % of the control cells",MRP2 [6],20%
same,"CLbile, int of TNP-G decreased by",MRP2 [6],74.2%
"COc1cc2c(cc1OC)CN(CCc1ccc(NC(=O)c3cc(OC)c(OC)cc3NC(=O)c3cnc4ccccc4c3)cc1)CC2 [Tariquidar, tariquidar]","TNP-G formation, Liver microsome","rat liver microsomes; 60 min, 100 µM",2154.6 ± 26.9 ng/mL
same,"BEI of TNP, % of the control cells",P-gp [11],34.5%
same,"CLbile, int of TNP reduced to",P-gp [11],83.1%
same,"TNP-G formation, UGT1A1","UGT1A1; 60 min, 100 µM",1533.8 ± 25.4 ng/mL
same,"cumulative bile excretion of TNP, % of the control level",[9],45%
"CCCN(CCC)S(=O)(=O)c1ccc(C(=O)O)cc1 [Probenecid, probenecid]",effect on TNP glucuronidation,rat liver microsomes,no significant effect
same,"TNP-G formation, Liver microsome","rat liver microsomes; 60 min, 100 µM",2191.5 ± 123.1 ng/mL
same,"Vanadate-sensitive ATPase activities, MRP2",MRP2 [3],5.7 ± 0.2 nmol/min/mg
same,"TNP-G formation, UGT1A1",UGT1A1,1527.5 ± 83.9 ng/mL
same,"BEI of TNP-G, % of the control cells",MRP2 [6],22.8%
same,"CLbile, int of TNP-G decreased by",MRP2 [6],78.1%
same,"24 h biliary excretion rate of TNP-G, % of the control level",[9],74%
"C[C@@H]1C[C@H]2[C@@H]3CCC4=CC(=O)C=C[C@]4(C)[C@@]3(F)[C@@H](O)C[C@]2(C)[C@@]1(O)C(=O)CO [Dexamethasone, dexamethasone]","TNP-G formation, Liver microsome",rat liver microsomes,2219.3 ± 52.8 ng/mL
same,"TNP-G formation, UGT1A1",UGT1A1,1542.4 ± 27.9 ng/mL
"O=C(O)c1cc(/N=N/c2ccc(S(=O)(=O)Nc3ccccn3)cc2)ccc1O [Sulfasalazine, sulfasalazine, reference compound]","Vanadate-sensitive ATPase activities, BCRP",BCRP,32.2 ± 1.3 nmol/min/mg
"O=c1c(O)c(-c2ccc(O)c(O)c2)oc2cc(O)cc(O)c12 [Quercetin, quercetin]","TNP-G formation, Liver microsome","rat liver microsomes; 60 min, 100 µM",2170.7 ± 33.6 ng/mL
same,"BEI of TNP, fold compared with the control",P-gp [11]; rat,2.1 fold
same,"CLbile, int of TNP, fold compared with the control",P-gp [11]; rat,1.7 fold
same,"TNP-G formation, UGT1A1",UGT1A1,1590.8 ± 30.5 ng/mL
